{
  "source": "patent US9440948B2",
  "about": "“Nicotine compounds and analogs thereof, synthetic methods of making compounds, and methods of use” (priority 2010, dated 2016)",
  "key": {"[1]": {"molecular_target": "T1, α4β2 receptors (Homo sapiens, UniProt P17787+P43681)", "T1 construct": "expressed in transfected cells; host or cells: Xenopus laevis oocytes (mRNA injection, alpha4:beta2 1:1)", "T1 sequence (P43681 29-627 limits assumed)": "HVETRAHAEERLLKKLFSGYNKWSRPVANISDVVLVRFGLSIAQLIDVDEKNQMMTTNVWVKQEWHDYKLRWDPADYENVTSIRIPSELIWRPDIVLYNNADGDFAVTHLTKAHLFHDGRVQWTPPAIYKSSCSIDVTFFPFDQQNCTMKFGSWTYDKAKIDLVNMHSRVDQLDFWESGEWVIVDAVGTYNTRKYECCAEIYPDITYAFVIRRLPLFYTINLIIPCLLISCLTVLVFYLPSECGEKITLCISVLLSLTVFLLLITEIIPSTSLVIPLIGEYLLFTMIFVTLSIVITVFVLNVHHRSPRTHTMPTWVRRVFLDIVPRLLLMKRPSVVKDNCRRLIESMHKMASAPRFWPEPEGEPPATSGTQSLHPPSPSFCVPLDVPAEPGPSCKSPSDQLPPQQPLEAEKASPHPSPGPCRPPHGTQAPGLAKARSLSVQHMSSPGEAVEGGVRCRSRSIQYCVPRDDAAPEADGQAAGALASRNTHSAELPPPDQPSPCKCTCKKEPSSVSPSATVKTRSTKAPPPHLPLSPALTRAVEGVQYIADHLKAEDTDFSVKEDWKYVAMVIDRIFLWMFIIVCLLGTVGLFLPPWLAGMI", "T1 sequence (P17787 26-502)": "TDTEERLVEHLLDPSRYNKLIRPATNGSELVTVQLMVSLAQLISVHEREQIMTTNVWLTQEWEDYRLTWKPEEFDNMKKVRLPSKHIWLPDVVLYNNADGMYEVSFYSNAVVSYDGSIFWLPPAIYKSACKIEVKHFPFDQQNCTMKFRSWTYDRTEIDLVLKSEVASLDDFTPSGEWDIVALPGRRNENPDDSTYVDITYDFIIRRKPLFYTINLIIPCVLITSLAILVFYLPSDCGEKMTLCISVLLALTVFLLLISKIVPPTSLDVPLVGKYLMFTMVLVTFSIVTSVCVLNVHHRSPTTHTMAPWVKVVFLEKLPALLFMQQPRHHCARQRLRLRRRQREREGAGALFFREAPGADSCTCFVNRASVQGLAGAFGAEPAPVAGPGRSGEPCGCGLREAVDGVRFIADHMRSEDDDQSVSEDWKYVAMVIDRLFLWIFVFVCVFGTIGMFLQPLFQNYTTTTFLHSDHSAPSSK", "type": "cell-based", "settings": "for agonist activity/potency on α4β2 receptors (in words): oocytes expressing α4β2 receptors", "source_text": "(§1) ACh control applications alternated with test compound applications."}, "[2]": {"test_system": "α6/α3 chimera/β2 receptors", "settings": "oocytes, FIG. 2.13", "experimental": "Mature female Xenopus laevis were anesthetized by immersion in a 1.5 g/L solution of aminobenzoic acid ethyl ester (MP Biomedicals, LLC, Solon, Ohio) for 30 min. The excised ovary bag was placed into calcium-free Barth's saline (88 mM NaCl, 1 mM KCl, 2.38 mM NaHCO3, 0.82 mM MgSO4, 15 mM HEPES, 0.012 mg/ml tetracycline hydrochloride, pH 7.3+−0.1), opened with forceps and washed three times with Barth's saline. Then 60 ml collagenase solution (76 mg Sigma type XX collagenase dissolved in Ca^2+-free Barth saline) was added and the oocyte containing mass was shaken for 2 hours at 5° C. After washing three times with Ca^2+-free Barth's and then three times with Barth's solution containing calcium, the oocytes were evaluated under a stereo microscope. Healthy stage 5 oocytes were transferred into new dishes and incubated in 17° C. for overnight. Oocytes were injected with either 50 nl of alpha7 mRNA solution (20 ng) or 50 nl of a mixture of alpha4 and beta2 (1:1, 10 ng) mRNA, using a Drummond Nanoject II Auto-Injector. The cells were cultured in Barth's saline at 17° C. for 5-16 days, with daily changes in the saline. […] Membrane currents were recorded with an AxoClamp-2 (Axon Instruments, Union City, Calif.), filtered at 10 kHz and sampled at 5 kHz. […]"}, "[3]": {"molecular_target": "T2, α7 receptors (Homo sapiens, UniProt P36544)", "T2 construct": "expressed in transfected cells; host or cells: Xenopus laevis oocytes (mRNA injection)", "T2 sequence (P36544 23-502)": "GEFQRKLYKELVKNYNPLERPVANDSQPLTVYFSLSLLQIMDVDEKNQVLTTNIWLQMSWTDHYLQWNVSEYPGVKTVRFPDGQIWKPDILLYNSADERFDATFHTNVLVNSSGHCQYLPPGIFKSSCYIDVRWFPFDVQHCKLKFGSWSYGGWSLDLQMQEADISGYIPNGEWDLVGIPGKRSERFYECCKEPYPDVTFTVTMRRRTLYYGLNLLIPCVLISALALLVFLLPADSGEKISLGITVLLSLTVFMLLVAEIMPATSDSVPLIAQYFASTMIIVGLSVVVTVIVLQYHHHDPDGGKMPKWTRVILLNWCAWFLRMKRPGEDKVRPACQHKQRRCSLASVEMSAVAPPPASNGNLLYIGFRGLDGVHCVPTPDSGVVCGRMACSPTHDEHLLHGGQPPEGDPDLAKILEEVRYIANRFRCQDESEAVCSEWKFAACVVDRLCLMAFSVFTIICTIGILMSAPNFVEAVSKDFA", "type": "cell-based", "settings": "oocytes expressing α7 receptors", "source_text": "as §1"}, "[4]": {"test_system": "alpha7 receptors relative to alpha4beta2 nAChRs", "settings": "Martin et al., 2004; cited from earlier work"}, "[5]": {"test_system": "rat brain nAChRs that bind nicotine with high affinity", "settings": "reference 7; cited from earlier work"}, "[6]": {"settings": "listed as 3-(((2S,5S)-1,5-Dimethylpyrrolidine-2-yl)methoxy)-pyridine"}},
  "note": "Entries after “also recorded” stand apart in the source; their conditions may differ. Like-named read-outs stand apart in the source and are kept apart here.",
  "data": [
    {"smiles": "C[C@H]1C[C@H](c2cccnc2)N1C", "note": "(relative stereo) [Trans-3-(1,4-Dimethylazetidin-2-yl)pyridine]", "values": [
      {"measurement": "potency of trans- versus cis-diastereomers on α4β2 receptors (in words)", "setting": "[1]; oocytes, FIG. 3.4", "value": "significantly more potent than the cis-diastereomers"}
    ]},
    {"smiles": "C[C@H]1CC[C@@H](c2cccnc2)N1C", "note": "[5′ Cis-Me-Nic]", "values": [
      {"measurement": "agonist activity/potency on α4β2 receptors (in words)", "setting": "[1]", "value": "inactive"},
      {"measurement": "response of α6/α3 chimera/β2 receptors (in words)", "setting": "[2]", "value": "essentially identical manner"}
    ]},
    {"smiles": "C[C@@H]1CC[C@@H](c2cccnc2)N1C", "note": "[5′ Trans-Me-Nic]", "values": [
      {"measurement": "agonist activity/potency on α4β2 receptors (in words)", "setting": "[1]", "value": "inactive"},
      {"measurement": "response of α6/α3 chimera/β2 receptors (in words)", "setting": "[2]", "value": "essentially identical manner"}
    ]},
    {"smiles": "C[C@H]1CC[C@@H](COc2cccnc2)N1C", "note": "[3-(((2S,5S)-1,5-Dimethylpyrrolidin-2-yl)methoxy)pyridine]", "values": [
      {"measurement": "agonist activity/potency on α4β2 receptors (in words)", "setting": "[1]", "value": "essentially no agonistic activity"},
      {"measurement": "agonist activity/potency on α4β2 receptors (in words)", "setting": "[1]; [6]", "value": "low activity"},
      {"measurement": "agonist activity/potency on α7 receptors (in words)", "setting": "[3]; [6]", "value": "high potency; also recorded: low activity"}
    ]},
    {"smiles": "C[C@@H]1CC[C@@H](COc2cccnc2)N1C", "note": "[3-(((2S,5R)-1,5-Dimethylpyrrolidin-2-yl)methoxy)pyridine]", "values": [
      {"measurement": "agonist activity/potency on α4β2 receptors (in words)", "setting": "[1]", "value": "essentially no agonistic activity"}
    ]},
    {"smiles": "CN1CCC[C@H]1c1cccnc1", "note": "[nicotine, (S)-nicotine]", "values": [
      {"measurement": "alpha7 receptors less sensitive to nicotine relative to alpha4beta2 nAChRs", "setting": "[4]", "value": "at least 50 ×"}
    ]},
    {"smiles": "CCC1(c2cccnc2)CCCN1C", "note": "(racemic) [2′-ethyl-nicotine, (±)-2′-Ethylnicotine]", "values": [
      {"measurement": "displacement of radiolabeled methylcarbamylcholine binding (in words)", "setting": "[5]", "value": "displace the binding"}
    ]},
    {"smiles": "CN1CCCC1(C)c1cccnc1", "note": "(racemic) [2′ methyl-nicotine, (±)-2′-Methylnicotine]", "values": [
      {"measurement": "agonist activity/potency on α4β2 receptors (in words)", "setting": "[1]", "value": "excellent agonist activity"},
      {"measurement": "agonist activity/potency on α7 receptors (in words)", "setting": "[3]", "value": "excellent agonist activity"},
      {"measurement": "increase in potency at α7 nAChR relative to nicotine", "setting": "[3]; FIG. 2.10", "value": 6.7, "unit": "fold"},
      {"measurement": "displacement of radiolabeled methylcarbamylcholine binding (in words)", "setting": "[5]", "value": "displace the binding"}
    ]},
    {"smiles": "CN1CCC1c1cccnc1", "note": "(stereo not drawn) [trans-3-(1-methylazetidin-2-yl)pyridine]", "values": [
      {"measurement": "agonist activity/potency on α4β2 receptors (in words)", "setting": "[1]", "value": "more potent strong agonist"},
      {"measurement": "agonist activity/potency on α7 receptors (in words)", "setting": "[3]", "value": "more potent strong agonist"}
    ]}
  ]
}
